Experimental data taken from patent publication US20210154188A1, “ALK5 INHIBITORS, CONJUGATES, AND USES THEREOF” (SILVERBACK THERAPEUTICS, INC., priority 2018, published 2021).

Columns and labels:
[1] = molecular target: T1, ALK5 (Homo sapiens, UniProt P36897); assay: ALK5 enzyme inhibition assay (33P-ATP filter-binding, Reaction Biology Corp); assay type: biochemical; details: casein substrate 1 mg/mL, 10 uM ATP
T1 construct: purchased Reaction Biology Corp (Malvern, PA)
T1 sequence (P36897 34-503): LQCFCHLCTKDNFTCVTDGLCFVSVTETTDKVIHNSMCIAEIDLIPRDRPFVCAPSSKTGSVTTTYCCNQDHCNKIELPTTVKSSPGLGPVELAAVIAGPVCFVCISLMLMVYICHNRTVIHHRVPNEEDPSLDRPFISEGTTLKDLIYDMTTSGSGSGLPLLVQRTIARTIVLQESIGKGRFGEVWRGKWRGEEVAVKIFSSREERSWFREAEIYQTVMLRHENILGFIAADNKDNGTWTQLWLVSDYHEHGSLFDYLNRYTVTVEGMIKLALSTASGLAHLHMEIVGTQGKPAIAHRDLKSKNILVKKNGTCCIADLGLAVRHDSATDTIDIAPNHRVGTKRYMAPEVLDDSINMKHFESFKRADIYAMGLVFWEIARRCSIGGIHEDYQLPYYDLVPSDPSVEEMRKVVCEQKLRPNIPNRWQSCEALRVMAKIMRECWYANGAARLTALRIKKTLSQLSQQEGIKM
Method: ALK5 enzyme inhibition assays were performed by Reaction Biology Corp (Malvern, PA). 1 mg/mL of peptide subtrate (casein) and 10 uM ATP were prepared in a mixture of fresh reaction buffer. The kinase was delivered into the substrate solution which was gently mixed. Compounds in 100% DMSO were added to the kinase reaction mixture by Acoustic technology (Echo550; nanoliter range) and the mixture was incubated for 20 min at room temperature. ^33P-ATP (Specific activity 10 uCi/uL) was added into the reaction mixture to initiate the reaction and the reaction mixture was incubated for 2 hours at room temperature. Radioactivity was detected by filter-binding method and kinase activity data were expressed as the percent remaining kinase activity in test samples compared to vehicle (dimethyl sulfoxide) reactions. IC50 values and curve fits were obtained using Prism (GraphPad Software).

[2] = test system: TGFb/SMAD Signaling Pathway SBE reporter cell line; assay: TGFb reporter assay (luciferase); assay type: cell-based; details: 5-6 h preincubation, then TGFb, 18 h, luminescence
Method: TGFb/SMAD Signaling Pathway SBE reporter cell line was obtained from BPS Bioscience. Cells were passed/expanded/stored in liquid nitrogen per supplier's instruction with the exception that growth media was changed to DMEM-C with Geneticin (DMEM supplemented with 10% fetal bovine serum, 1× NEAA, 1 mM Pyruvate, 2 mM glutamine, 50 μg/mL penicillin, 50 U/mL streptomycin and 400 ug/mL of Geneticin). The assay media was MEM supplemented with 0.5% fetal bovine serum, 1× NEAA, 1 mM Pyruvate, 50 μg/mL penicillin and 50 U/mL streptomycin.
Reporter cells were harvested from the tissue culture flasks by incubation in small quantity of Versene at room temperature for three to five minutes after the media in the flask was removed and cells rinsed with PBS. Cells were counted and diluted in the assay media at ˜0.8×10^6 cells/mL then 50 uL/well were added to 96-well assay plate. Test samples (at desired concentrations diluted in assay media) were added to assay plate containing the 50 uL/well of cells (or media only), 50 uL per well, and incubated for 5-6 hours at 37° C. in a 5% CO2 humidified incubator. After that time, 15 uL of TGFb diluted to 12.5 ng/mL in the assay media was added to the plate. Controls included TGFb titration (from 25 to 0 ng/mL) without inhibitors, and media only (without cells, inhibitor or TGFb). Plates were incubated at 37° C. in a 5% CO2 humidified incubator for 18 h. Luciferase substrate solution was subsequently added at 75 uL per well, incubated in dark with shaking at room temperature for 10 min, and luminescence was measured using a luminometer.

IC50 [1] | IC50 [2] | Compound
100 to 1000 nM | 100 to 1000 nM | Cc1cccc(-c2nc(CNc3cccc4c3CNC4)[nH]c2-c2ccc3ncnn3c2)n1 [Compound 1.31, N-((5-([1,2,4]triazolo[1,5-a]pyridin-6-yl)-4-(6-methylpyridin-2-yl)-1H-imidazol-2-yl)methyl)isoindolin-4-amine]
10 to 100 nM | 10 to 100 nM | Cc1cccc(-c2nc(CNCc3cccc4ccccc34)[nH]c2-c2ccc3ncnn3c2)n1 [Compound 1.57, 1-(5-([1,2,4]triazolo[1,5-a]pyridin-6-yl)-4-(6-methylpyridin-2-yl)-1H-imidazol-2-yl)-N-(naphthalen-1-ylmethyl)methanamine]
100 to 1000 nM | 100 to 1000 nM | Cc1cccc(-c2nc(CN3CCc4ccccc4C3)[nH]c2-c2ccn3ncnc3c2)n1 [Compound 1.40, 2-((5-([1,2,4]triazolo[1,5-a]pyridin-7-yl)-4-(6-methylpyridin-2-yl)-1H-imidazol-2-yl)methyl)-1,2,3,4-tetrahydroisoquinoline]
 | 100 to 1000 nM | Cc1cccc(-c2nc(C3CCCCN3)[nH]c2-c2ccc3ncnn3c2)n1 (stereo not drawn) [Compound 1.49, 6-(4-(6-methylpyridin-2-yl)-2-(piperidin-2-yl)-1H-imidazol-5-yl)-[1,2,4]triazolo[1,5-a]pyridine]
100 to 1000 nM | 100 to 1000 nM | Cc1cccc(-c2nc(CNc3ccc4c(c3)CCNC4)[nH]c2-c2ccc3ncnn3c2)n1 [Compound 1.2, N-((5-([1,2,4]triazolo[1,5-a]pyridin-6-yl)-4-(6-methylpyridin-2-yl)-1H-imidazol-2-yl)methyl)-1,2,3,4-tetrahydroisoquinolin-6-amine]
1000 to 10000 nM | 100 to 1000 nM | Cc1cccc(-c2nc(CNC3CCC3)[nH]c2-c2ccc3ncnn3c2)n1 [Compound 1.10, 1-(5-([1,2,4]triazolo[1,5-a]pyridin-6-yl)-4-(6-methylpyridin-2-yl)-1H-imidazol-2-yl)-N-(cyclobutyl)methanamine]
 | 10 to 100 nM | Cc1cccc(-c2nc(CNC34CC(C3)C4)[nH]c2-c2ccc3ncnn3c2)n1 [Compound 1.9, N-((5-([1,2,4]triazolo[1,5-a]pyridin-6-yl)-4-(6-methylpyridin-2-yl)-1H-imidazol-2-yl)methyl)bicyclo-[1.1.1]pentan-1-amine]
100 to 1000 nM | 100 to 1000 nM | Cc1cccc(-c2nc(CNc3cccc4c3CNCC4)[nH]c2-c2ccc3ncnn3c2)n1 [Compound 1.3, N-((5-([1,2,4]triazolo[1,5-a]pyridin-6-yl)-4-(6-methylpyridin-2-yl)-1H-imidazol-2-yl)methyl)-1,2,3,4-tetrahydroisoquinolin-8-amine]
 | 1000 to 10000 nM | Cc1cccc(-c2nc(C3CNC3)[nH]c2-c2ccc3ncnn3c2)n1 [Compound 1.53, 6-(2-(azetidin-3-yl)-4-(6-methylpyridin-2-yl)-1H-imidazol-5-yl)-[1,2,4]triazolo[1,5-a]pyridine]
10 to 100 nM | 100 to 1000 nM | Cc1cccc(-c2nc(CN[C@H]3CCCC[C@@H]3F)[nH]c2-c2ccc3ncnn3c2)n1 [Compound 1.32, (1S,2S)-N-((5-([1,2,4]triazolo[1,5-a]pyridin-6-yl)-4-(6-methylpyridin-2-yl)-1H-imidazol-2-yl)methyl)-2-fluorocyclohexan-1-amine]
1000 to 10000 nM | 100 to 1000 nM | Cc1cccc(-c2nc(CN3CCCCC3)[nH]c2-c2ccn3ncnc3c2)n1 [Compound 1.35, 7-(4-(6-methylpyridin-2-yl)-2-(piperidin-1-ylmethyl)-1H-imidazol-5-yl)-[1,2,4]triazolo[1,5-a]pyridine]
 | 10 to 100 nM | Cc1cccc(-c2nc(CNC3CCCCC3C)[nH]c2-c2ccc3ncnn3c2)n1 (stereo not drawn) [Compound 1.16, 1-(5-([1,2,4]triazolo[1,5-a]pyridin-6-yl)-4-(6-methylpyridin-2-yl)-1H-imidazol-2-yl)-N-(2-methylcyclohexyl)methanamine]
 | 100 to 1000 nM | Cc1cccc(-c2nc(CNc3cccc4c3C(N)CC4)[nH]c2-c2ccc3ncnn3c2)n1 (stereo not drawn) [Compound 1.20, N7-((5-([1,2,4]triazolo[1,5-a]pyridin-6-yl)-4-(6-methylpyridin-2-yl)-1H-imidazol-2-yl)methyl)-2,3-dihydro-1H-indene-1,7-diamine]
 | 100 to 1000 nM | Cc1cccc(-c2nc(C3CCNC3)[nH]c2-c2ccc3ncnn3c2)n1 (stereo not drawn) [Compound 1.50, 6-(4-(6-methylpyridin-2-yl)-2-(pyrrolidin-3-yl)-1H-imidazol-5-yl)-[1,2,4]triazolo[1,5-a]pyridine]
 | 100 to 1000 nM | Cc1cccc(-c2nc(CNc3ccc4c(c3)C(N)CC4)[nH]c2-c2ccc3ncnn3c2)n1 (stereo not drawn) [Compound 1.21, N6-((5-([1,2,4]triazolo[1,5-a]pyridin-6-yl)-4-(6-methylpyridin-2-yl)-1H-imidazol-2-yl)methyl)-2,3-dihydro-1H-indene-1,6-diamine]
 | 1000 to 10000 nM | Cc1cccc(-c2nc(CNC3CCNCC3)[nH]c2-c2ccn3ncnc3c2)n1 [Compound 1.39, N-((5-([1,2,4]triazolo[1,5-a]pyridin-7-yl)-4-(6-methylpyridin-2-yl)-1H-imidazol-2-yl)methyl)piperidin-4-amine]
 | 100 to 1000 nM | Cc1cccc(-c2nc(CNc3ccc4c(c3)CCC4N)[nH]c2-c2ccc3ncnn3c2)n1 (stereo not drawn) [Compound 1.5, N^5-((5-([1,2,4]triazolo[1,5-a]pyridin-6-yl)-4-(6-methylpyridin-2-yl)-1H-imidazol-2-yl)methyl)-2,3-dihydro-1H-indene-1,5-diamine]
 | 100 to 1000 nM | Cc1cccc(-c2nc(C3CCCNC3)[nH]c2-c2ccc3ncnn3c2)n1 (stereo not drawn) [Compound 1.48, 6-(4-(6-methylpyridin-2-yl)-2-(piperidin-3-yl)-1H-imidazol-5-yl)-[1,2,4]triazolo[1,5-a]pyridine]
 | 100 to 1000 nM | Cc1cccc(-c2nc(C3CCN(C(=O)OC(C)(C)C)C3)[nH]c2-c2ccc3ncnn3c2)n1 (stereo not drawn) [Compound 1.51, tert-butyl 3-(5-([1,2,4]triazolo[1,5-a]pyridin-6-yl)-4-(6-methylpyridin-2-yl)-1H-imidazol-2-yl)pyrrolidine-1-carboxylate]
 | 100 to 1000 nM | Cc1cccc(-c2nc(C3CN(C(=O)OC(C)(C)C)C3)[nH]c2-c2ccc3ncnn3c2)n1 [Compound 1.52, tert-butyl 3-(5-([1,2,4]triazolo[1,5-a]pyridin-6-yl)-4-(6-methylpyridin-2-yl)-1H-imidazol-2-yl)azetidine-1-carboxylate]
 | 100 to 1000 nM | Cc1cccc(-c2nc(CNc3cccc4c3CCC4N)[nH]c2-c2ccc3ncnn3c2)n1 (stereo not drawn) [Compound 1.6, N^4-((5-([1,2,4]triazolo[1,5-a]pyridin-6-yl)-4-(6-methylpyridin-2-yl)-1H-imidazol-2-yl)methyl)-2,3-dihydro-1H-indene-1,4-diamine]
 | 1000 to 10000 nM | Cc1cccc(-c2nc(CNC3CCCNC3)[nH]c2-c2ccn3ncnc3c2)n1 (stereo not drawn) [Compound 1.38, N-((5-([1,2,4]triazolo[1,5-a]pyridin-7-yl)-4-(6-methylpyridin-2-yl)-1H-imidazol-2-yl)methyl)piperidin-3-amine]
 | 1000 to 10000 nM | Cc1cccc(-c2nc(C34CCC(N)(CC3)CC4)[nH]c2-c2ccc3ncnn3c2)n1 [Compound 1.55, 4-(5-([1,2,4]triazolo[1,5-a]pyridin-6-yl)-4-(6-methylpyridin-2-yl)-1H-imidazol-2-yl)bicyclo[2.2.2]octan-1-amine]
 | 100 to 1000 nM | CC(=O)NC1Cc2cccc(NCc3nc(-c4cccc(C)n4)c(-c4ccc5ncnn5c4)[nH]3)c2C1 (stereo not drawn) [Compound 1.23, N-(4-(((5-([1,2,4]triazolo[1,5-a]pyridin-6-yl)-4-(6-methylpyridin-2-yl)-1H-imidazol-2-yl)methyl)amino)-2,3-dihydro-1H-inden-2-yl)acetamide]
 | 10 to 100 nM | Cc1cccc(-c2nc(CNC3CCCOC3)[nH]c2-c2ccc3ncnn3c2)n1 (stereo not drawn) [Compound 1.15, 1-(5-([1,2,4]triazolo[1,5-a]pyridin-6-yl)-4-(6-methylpyridin-2-yl)-1H-imidazol-2-yl)-N-(3-tetrahydropyranyl)methanamine]
